Patent US20040023922A1, “Lipids for modulating immune response” (priority 2000, published 2004)
Values joined by “and” are separate entries in the source; they are usually repeats but may differ in a detail not shown here. Equal values may be shown once.

Test system: Female Balb/c mice
Experiment: Adjuvanticity of lipids: serum anti-KLH IgA, IgG, IgM ELISA (Example 7)
Type: in vivo
Conditions: for Day 7 Results IgA, score as multiples of the control response / Day 7 Results IgG, score as multiples of the control response / Day 7 Results IgM, score as multiples of the control response: serum day 7 after booster; for Day 7 Results IgA, score as multiples of the control response: 5 μl lipid + 45 μl saline + 50 μl KLH (2 mg/ml), week 0 and week 2; for Day 7 Results IgA, score as multiples of the control response / Day 7 Results IgG, score as multiples of the control response / Day 7 Results IgM, score as multiples of the control response / Day 21 Results IgA, score as multiples of the control response / Day 21 Results IgG, score as multiples of the control response / Day 21 Results IgM, score as multiples of the control response: control KLH + Saline = 1; for Day 21 Results IgA, score as multiples of the control response / Day 21 Results IgG, score as multiples of the control response / Day 21 Results IgM, score as multiples of the control response: serum day 21 after booster; for Ranking Total: sum of the six IgA, IgG, IgM scores of day 7 and day 21, control KLH + Saline = 6
Experimental: The objective of this study was to investigate the adjuvanticity of 19 different lipids.
Female Balb/c mice, 6-8 weeks and weighing about 20-22 gms were used and maintained on a normal mouse diet throughout the study.
There were 22 groups of mice marked alphabetically from A-V. Group A (8 mice) was the negative control (KLH+Saline), Group B (8 mice) was the positive control (KLH+IFA). Groups C-V were the experimental groups containing 6 mice each. 100 μl of antigen preparation comprising of 5 μl lipid+45 μl saline+50 μl (2 mg/ml KLH) was administered to 20 groups of 6 mice each, on week 0 followed by a boost on week 2.
On day 7 and day 21 after the booster dose, the mice were tail bled, the serum separated, aliquoted and stored at 4° C.
The specific anti-KLH IgG and IgM antibody content of each individual serum sample was determined in an established ELISA assay and standardised against a positive control antiserum obtained by hyperimmunisation of mice with KLH (100 μg) in Freund's incomplete adjuvant. Plates were coated with KLH at 2 μg/ml and incubated with four twofold dilutions of samples (100 μl) at 37° C. for 2 hours. The initial dilution of serum samples was 1:50 for IgA assay and 1:100 for IgG and IgM assays. […] IgA and IgM were used at 1:1000 and IgG at 1:2000 for 2 hours at 37° C. The results were expressed as antibody units calculated from the standard curve obtained from pooled immune mouse serum given an arbitrary antibody value of 100,000 IgA units/ml and 1×10^6 IgG and IgM units/ml. The standard curve was diluted from 1:100 to 1:3200 for IgA, 1:4000 to 1:256,000 for IgG and 1:1000 to 1:32000 for IgM samples. The value for each sample dilution falling on standard curve was calculated and the mean taken as the value for the sample.
Results are given in the form of histograms (FIGS. 9 to 14), plotting the Ig response (units/ml) against the trial grouping. […] The number signifies multiples of the control response.

SMILES | Day 7 Results IgA, score as multiples of the control response | Day 7 Results IgG, score as multiples of the control response | Day 7 Results IgM, score as multiples of the control response | Day 21 Results IgA, score as multiples of the control response | Day 21 Results IgG, score as multiples of the control response | Day 21 Results IgM, score as multiples of the control response | Ranking Total | Ranking Total (listed as TpaL)
CCCCCCCCCCCCCCC(=O)OC[C@H](COP(=O)([O-])OCC[N+](C)(C)C)OC(=O)CCCCCCCCCCCCCC [PCP, L-α-Phosphatidylcholine, dipentadecanoyl] | 9 | 5 | 2 | 2 | 3 | 1 | 22 | –
CCCCCCCCCCCCCCCC(=O)N[C@@H](CO[C@@H]1O[C@H](CO)[C@@H](O)[C@H](O)[C@H]1O)[C@H](O)CCCCCCCCCCCCCCC [PC, N-Palmitoyl dihydroglucocerebroside] | 33 | 2 | 3 | 3 | 12 | 3 | 56 | –
CCCCCCCCCCCCCCCCCC(=O)OC[C@H](COP(=O)(O)OCCN)OC(=O)CCCCCCCCCCCCCCCCC [PES, L-α-Phosphatidylethanolamine, distearoyl] | 15 | 6 | 1 | 2 | 7 | 1 | 32 | –
CCCCCCCCCCCCCCCCC(=O)OC[C@H](COP(=O)(O)OCCN)OC(=O)CCCCCCCCCCCCCCCC [PEH, L-α-Phosphatidylethanolamine, diheptadecanoyl] | 4 | 12 | 2 | 2 | 7 | 1 | 28 | –
CCCCCCCCCCCCCCC(=O)OCC(COC(=O)CCCCCCCCCCCCCC)OC(=O)CCCCCCCCCCCCCC [TPeN, Tripentadecanoin] | 11 | 4 | 2 | 3 | 9 | 2 | 31 | –
CCCCCCCCCCCCCCCC(=O)OCC(COC(=O)CCCCCCCCCCCCCCC)OC(=O)CCCCCCCCCCCCCCC [TPaL, Tripalmitin] | 3 | 4 | 1 | 1 | 6 | 1 | 16 | 15
CCCCCCCCCCCCC/C=C/[C@@H](O)[C@H](CO)NC(=O)CCCCCCCCCCCCCCC [PS, N-Palmitoyl-d-sphigosine] | 35 | 3 | 2 | 4 | 19 | 1 | 64 | –
CCCCCCCCCCCCCCCCC(=O)OC[C@H](COP(=O)([O-])OCC[N+](C)(C)C)OC(=O)CCCCCCCCCCCCCCCC [PCH, L-α-Phosphatidylcholine, diheptadecanoyl] | 18 | 10 | 1 | 2 | 10 | 2 | 43 | –
CCCCCCCCCCCCCCCCCC(=O)OCC(COC(=O)CCCCCCCCCCCCC)OC(=O)CCCCCCCCCCCCCCCCC (racemic) [DSM, 1,2 Distearloyl-3-myristoyl-rac-glycerol] | 26 | 4 | 4 | 3 | 5 | 3 | 45 | –
CCCCCCCCCCCCCCCCCC(=O)OCC(COC(=O)CCCCCCCCCCCCCCC)OC(=O)CCCCCCCCCCCCCCCCC (racemic) [DSP, 1,2 Distearoyl-3-palmitoyl-rac-glycerol] | 15 | 7 | 5 | 3 | 8 | 2 | 39 and 40 | –
CCCCCCCCCCCCCC(=O)OC[C@H](COP(=O)(O)OCCN)OC(=O)CCCCCCCCCCCCC [PEM, L-α-Phosphatidylethanolamine, dimyristoyl] | 17 | 7 | 1 | 2 | 6 | 2 | 35 | –
CCCCCCCCCCCCCC(=O)OCC(COP(=O)([O-])OCC[N+](C)(C)C)OC(=O)CCCCCCCCCCCCC (racemic) [PCM, DL-α-Phosphatidylcholine, dimyristoyl] | 4 | 2 | 1 | 1 | 3 | 1 | 12 | –
CCCCCCCCCCCCCC(=O)OC[C@H](COP(=O)(O)O)OC(=O)CCCCCCCCCCCCC [PAM, L-α-Phosphatidicacid, dimyristoyl] | 4 | 5 | 1 | 1 | 6 | 1 | 18 | –
CCCCCCCCCCCCCCCC(=O)OCC(COC(=O)CCCCCCCCCCCCC)OC(=O)CCCCCCCCCCCCCCC (racemic) [DPM, 1,2 Diplamitoyl-3-myristoyl-rac-glycerol] | 16 | 3 | 1 | 2 | 7 | 2 | 31 | –
